For one molecule, Kd results are on record in PMC9965018, “Marine-Derived Natural Product HDYL-GQQ-495 Targets P62 to Inhibit Autophagy” (Marine Drugs, 2023).

Each structure is given as a SMILES string.

The assay has as its target T1, P62 (P62/SQSTM1) (Homo sapiens, UniProt Q13501).
T1 construct: MBP-P62 (purified recombinant)
In words: microscale thermophoresis (MST) with labelled MBP-P62, MBP as negative control; also induces polymerization of purified P62. The format is binding. (MST reads how a fluorescent partner responds to local heating, with and without ligand.)

T1 sequence (Q13501 2-440): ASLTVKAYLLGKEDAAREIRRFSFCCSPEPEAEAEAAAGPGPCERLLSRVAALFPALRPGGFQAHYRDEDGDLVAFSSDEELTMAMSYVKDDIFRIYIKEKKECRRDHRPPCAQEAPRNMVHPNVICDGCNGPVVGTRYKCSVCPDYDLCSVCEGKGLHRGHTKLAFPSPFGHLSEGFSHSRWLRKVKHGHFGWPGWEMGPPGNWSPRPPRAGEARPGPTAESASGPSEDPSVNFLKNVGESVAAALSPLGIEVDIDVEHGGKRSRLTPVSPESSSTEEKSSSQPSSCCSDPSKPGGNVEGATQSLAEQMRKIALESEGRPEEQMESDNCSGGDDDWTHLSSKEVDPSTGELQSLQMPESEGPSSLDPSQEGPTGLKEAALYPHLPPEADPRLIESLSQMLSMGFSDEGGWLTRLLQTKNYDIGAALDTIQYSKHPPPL

As for `O=C(c1ccc(OCCN2CCCCC2)cc1)c1c(O)nc2ccc(O)c3c2c1-c1cccc(O)c1C3=O` [HDYL-GQQ-495], binding was characterised by a dissociation constant (Kd) of 11.2 ± 4.07 µM.
